Legend:
hCA I = hCA I (Homo sapiens, UniProt P00915); test: stopped-flow CO2 hydrase assay, hCA I; assay type: biochemical; conditions: incubation time 6 h, mean of three experiments
Protocol: (§1) The target coumarins 5a–p and 7a–c were examined for their CA inhibitory actions towards the ubiquitous CA I and II (cytosolic) as well as the tumour-associated CA IX and XII isozymes by the use of a stopped-flow CO2 hydrase assay, using acetazolamide (AZA) as a reference compound.
(§2) The experimental procedures utilised for CA inhibitory assay of the target compounds were carried out as described earlier, and presented in the Supplementary Materials.

hCA II = hCA II (Homo sapiens, UniProt P00918); test: stopped-flow CO2 hydrase assay, hCA II; assay type: biochemical; conditions: incubation time 6 h, mean of three experiments
Protocol: as §1, §2

hCA IX = hCA IX (Homo sapiens, UniProt Q16790); test: stopped-flow CO2 hydrase assay, hCA IX; assay type: biochemical; conditions: incubation time 6 h, mean of three experiments
Protocol: as §1, §2

hCA XII = hCA XII (Homo sapiens, UniProt O43570); test: stopped-flow CO2 hydrase assay, hCA XII; assay type: biochemical; conditions: incubation time 6 h, mean of three experiments
Protocol: as §1, §2

HCT-116 cells = test: MTT antiproliferative assay, HCT-116; assay type: cell-based, human; conditions: mean ± SEM of three experiments; for inhibition at 10 µM / inhibition at 100 µM: Homo sapiens; for inhibition at 10 µM: HCT-116, HCT116, 10 µM, read-out: % Growth inhibition HCT116 10 µM; for inhibition at 100 µM: HCT-116, HCT116, 100 µM, read-out: % Growth inhibition HCT116 100 µM
Protocol: (§3) Encouraged by the favourable selectivity profile of ureidocoumarins 5a–p and amidocoumarins 7a–c towards hCA IX and hCA XII, they were further examined for their prospective antiproliferative activity against human colorectal (HCT-116) and breast (MCF-7) cancer cell lines, adopting the MTT assay.
(§4) The evaluation of anticancer activity of the target compounds was conducted by MTT assay adopting the literature procedure.

MCF-7 cells = test: MTT antiproliferative assay, MCF-7; assay type: cell-based, human; conditions: mean ± SEM of three experiments; for inhibition at 10 µM / inhibition at 100 µM: Homo sapiens; for inhibition at 10 µM: MCF7, MCF7, 10 µM, read-out: % Growth inhibition MCF7 10 µM; for inhibition at 100 µM: MCF7, MCF7, 100 µM, read-out: % Growth inhibition MCF7 100 µM
Protocol: as §3, §4

Chain of hCA XII (O43570 25-354): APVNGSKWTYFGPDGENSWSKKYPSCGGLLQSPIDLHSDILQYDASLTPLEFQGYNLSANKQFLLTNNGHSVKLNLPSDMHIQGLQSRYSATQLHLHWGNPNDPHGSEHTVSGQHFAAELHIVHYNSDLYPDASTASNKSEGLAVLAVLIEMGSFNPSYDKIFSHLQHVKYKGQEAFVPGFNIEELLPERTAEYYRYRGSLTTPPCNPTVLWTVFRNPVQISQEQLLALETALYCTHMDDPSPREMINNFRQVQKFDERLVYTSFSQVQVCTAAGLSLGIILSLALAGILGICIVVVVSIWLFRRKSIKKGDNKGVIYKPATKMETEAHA
Chain of hCA I (P00915 whole entry): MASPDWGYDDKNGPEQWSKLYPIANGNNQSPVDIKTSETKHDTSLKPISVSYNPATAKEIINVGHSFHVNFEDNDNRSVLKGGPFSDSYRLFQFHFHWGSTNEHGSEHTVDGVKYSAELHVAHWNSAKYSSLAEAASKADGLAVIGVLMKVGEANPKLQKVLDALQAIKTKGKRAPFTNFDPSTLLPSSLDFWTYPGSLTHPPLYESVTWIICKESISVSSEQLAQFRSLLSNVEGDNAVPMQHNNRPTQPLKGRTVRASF

## CCCCOc1ccc(NC(=O)Nc2ccc3oc(=O)ccc3c2)cc1 [Compound 5f, 1-(4-Butoxyphenyl)-3-(2-oxo-2H-chromen-6-yl)urea]
hCA I
  Ki: > 100000 nM
hCA II
  Ki: > 100000 nM
hCA IX
  Ki: 32.5 nM
hCA XII
  Ki: 81.8 nM
HCT-116 cells
  inhibition at 10 µM: 15 ± 5.2%
  inhibition at 100 µM: 67.7 ± 0.6%
MCF-7 cells
  inhibition at 10 µM: 32.3 ± 2.6%
  inhibition at 100 µM: 46.9 ± 3.4%
other
  melting point: 234 to 235 °C

## CCCCc1ccc(NC(=O)Nc2ccc3oc(=O)ccc3c2)cc1 [Compound 5e, 1-(4-Butylphenyl)-3-(2-oxo-2H-chromen-6-yl)urea]
hCA I
  Ki: > 100000 nM
hCA II
  Ki: > 100000 nM
hCA IX
  Ki: 54.7 nM
hCA XII
  Ki: 95.1 nM
HCT-116 cells
  inhibition at 10 µM: 20.1 ± 2.5%
  inhibition at 100 µM: 65 ± 6%
MCF-7 cells
  inhibition at 10 µM: 38.2 ± 2.5%
  inhibition at 100 µM: 46.4 ± 4.9%
other
  melting point: 223 to 224 °C

## O=C(Nc1cc(C(F)(F)F)cc(C(F)(F)F)c1)Nc1ccc2oc(=O)ccc2c1 [Compound 5i, 1-(3,5-Bis(trifluoromethyl)phenyl)-3-(2-oxo-2H-chromen-6-yl)urea]
hCA I
  Ki: > 100000 nM
hCA II
  Ki: > 100000 nM
hCA IX
  Ki: 14.7 nM
hCA XII
  Ki: 5.9 nM
HCT-116 cells; HCT116, 10 µM
  % Growth inhibition HCT116 10 µM: 70.4 ± 2.6%
HCT-116 cells; HCT116, 100 µM
  % Growth inhibition HCT116 100 µM: 94.2 ± 1.1%
HCT-116 cells
  inhibition at 100 µM: > 90%
MCF-7 cells
  inhibition at 10 µM: > 50%
  inhibition at 100 µM: > 90%
MCF-7 cells; MCF7, 10 µM
  % Growth inhibition MCF7 10 µM: 51.5 ± 3.1%
MCF-7 cells; MCF7, 100 µM
  % Growth inhibition MCF7 100 µM: 93.9 ± 0.4%

## O=C(Nc1ccc(C(F)(F)F)cc1)Nc1ccc2oc(=O)ccc2c1 [Compound 5b]
hCA I
  Ki: > 100000 nM
hCA II
  Ki: > 100000 nM
hCA IX
  Ki: 71.4 nM
hCA XII
  Ki: 38.5 nM
HCT-116 cells
  inhibition at 10 µM: 7.6 ± 2.8%
  inhibition at 100 µM: 77 ± 4%
MCF-7 cells
  inhibition at 10 µM: 4.2 ± 1.4%
  inhibition at 100 µM: 77.8 ± 5.1%
other
  melting point: 276 to 278 °C

## O=C(Nc1cccc(C(F)(F)F)c1)Nc1ccc2oc(=O)ccc2c1 [Compound 5a, 1-(2-Oxo-2H-chromen-6-yl)-3-(3-(trifluoromethyl)phenyl)urea]
hCA I
  Ki: > 100000 nM
hCA II
  Ki: > 100000 nM
hCA IX
  Ki: 45.9 nM
hCA XII
  Ki: 26.2 nM
HCT-116 cells
  inhibition at 10 µM: 8 ± 4.8%
  inhibition at 100 µM: 21.9 ± 4.6%
MCF-7 cells
  inhibition at 10 µM: 3.7 ± 1.9%
  inhibition at 100 µM: 34.7 ± 4.4%
other
  melting point: 252 to 254 °C

## O=C(Nc1ccc(F)c(Cl)c1)Nc1ccc2oc(=O)ccc2c1 [Compound 5h, 1-(3-Chloro-4-fluorophenyl)-3-(2-oxo-2H-chromen-6-yl)urea]
hCA I
  Ki: > 100000 nM
hCA II
  Ki: > 100000 nM
hCA IX
  Ki: 24.1 nM
hCA XII
  Ki: 10.3 nM
HCT-116 cells
  inhibition at 10 µM: 11.9 ± 1.5%
  inhibition at 100 µM: 92.3 ± 1.2%
MCF-7 cells
  inhibition at 10 µM: 16.9 ± 5.3%
  inhibition at 100 µM: 91.2 ± 1%
other
  melting point: 232 to 233 °C

## O=C(Nc1ccc2oc(=O)ccc2c1)Nc1ccc(Cl)cc1Cl [Compound 5l, 1-(2,4-Dichlorophenyl)-3-(2-oxo-2H-chromen-6-yl)urea]
hCA I
  Ki: > 100000 nM
hCA II
  Ki: > 100000 nM
hCA IX
  Ki: 50.6 nM
hCA XII
  Ki: 56.7 nM
HCT-116 cells
  inhibition at 10 µM: 2.6 ± 1.8%
  inhibition at 100 µM: 6.7 ± 1.7%
MCF-7 cells
  inhibition at 10 µM: 5.9 ± 2.7%
  inhibition at 100 µM: 6.6 ± 2.5%
other
  melting point: 291 to 292 °C

## O=C(Nc1cc(Cl)cc(Cl)c1)Nc1ccc2oc(=O)ccc2c1 [Compound 5j, 1-(3,5-Dichlorophenyl)-3-(2-oxo-2H-chromen-6-yl)urea]
hCA I
  Ki: > 100000 nM
hCA II
  Ki: > 100000 nM
hCA IX
  Ki: 19.9 nM
hCA XII
  Ki: 23.4 nM
HCT-116 cells
  inhibition at 10 µM: 19.2 ± 3.8%
  inhibition at 100 µM: 91.9 ± 1.1%
MCF-7 cells
  inhibition at 10 µM: 6.1 ± 2%
  inhibition at 100 µM: 91.1 ± 0.6%
other
  melting point: 252 to 253 °C

## O=C(Nc1ccc2oc(=O)ccc2c1)Nc1ccc(F)cc1F [Compound 5m, 1-(2,4-Difluorophenyl)-3-(2-oxo-2H-chromen-6-yl)urea]
hCA I
  Ki: > 100000 nM
hCA II
  Ki: > 100000 nM
hCA IX
  Ki: 25.6 nM
hCA XII
  Ki: 7.2 nM
HCT-116 cells
  inhibition at 10 µM: 25.7 ± 2.3%
  inhibition at 100 µM: 26.1 ± 4%
MCF-7 cells
  inhibition at 10 µM: 15.2 ± 1.4%
  inhibition at 100 µM: 22.7 ± 3.3%

## O=C(Nc1ccc2oc(=O)ccc2c1)c1ccc(Cl)c(C(F)(F)F)c1 [Compound 7a, 4-Chloro-N-(2-oxo-2H-chromen-6-yl)-3-(trifluoromethyl)benzamide]
hCA I
  Ki: > 100000 nM
hCA II
  Ki: > 100000 nM
hCA IX
  Ki: 82.4 nM
hCA XII
  Ki: 42.8 nM
HCT-116 cells
  inhibition at 10 µM: 14 ± 2.4%
  inhibition at 100 µM: 42.2 ± 2.5%
MCF-7 cells
  inhibition at 10 µM: 9.9 ± 3.4%
  inhibition at 100 µM: 19 ± 2.1%
other
  melting point: 272 to 273 °C

## O=C(Nc1ccc(Br)cc1)Nc1ccc2oc(=O)ccc2c1 [Compound 5d, 1-(4-Bromophenyl)-3-(2-oxo-2H-chromen-6-yl)urea]
hCA I
  Ki: > 100000 nM
hCA II
  Ki: > 100000 nM
hCA IX
  Ki: 70.6 nM
hCA XII
  Ki: 51.1 nM
HCT-116 cells
  inhibition at 10 µM: 25.4 ± 2.7%
  inhibition at 100 µM: 31.7 ± 3.5%
MCF-7 cells
  inhibition at 10 µM: 18.2 ± 3.2%
  inhibition at 100 µM: 18.5 ± 4.5%
other
  melting point: 257 to 258 °C

## O=C(Nc1ccc2oc(=O)ccc2c1)Nc1c(Br)cc(F)cc1Br [Compound 5p, 1-(2,6-Dibromo-4-fluorophenyl)-3-(2-oxo-2H-chromen-6-yl)urea]
hCA I
  Ki: > 100000 nM
hCA II
  Ki: > 100000 nM
hCA IX
  Ki: 72.8 nM
hCA XII
  Ki: 50.4 nM
HCT-116 cells
  inhibition at 10 µM: 14.1 ± 3%
  inhibition at 100 µM: 75.2 ± 5.8%
MCF-7 cells
  inhibition at 10 µM: 21.4 ± 3%
  inhibition at 100 µM: 79.5 ± 2.4%

## O=C(Nc1ccc(Cl)c(C(F)(F)F)c1)Nc1ccc2oc(=O)ccc2c1 [Compound 5g, 1-(4-Chloro-3-(trifluoromethyl)phenyl)-3-(2-oxo-2H-chromen-6-yl)urea]
hCA I
  Ki: > 100000 nM
hCA II
  Ki: > 100000 nM
hCA IX
  Ki: 66.4 nM
hCA XII
  Ki: 29.4 nM
HCT-116 cells
  inhibition at 10 µM: 15.2 ± 4.4%
  inhibition at 100 µM: 90.5 ± 1.4%
MCF-7 cells
  inhibition at 10 µM: 10 ± 2.4%
  inhibition at 100 µM: 92.3 ± 0.6%
other
  melting point: 253 to 255 °C

## O=C(Nc1ccc(F)cc1)Nc1ccc2oc(=O)ccc2c1 [Compound 5c, 1-(4-Fluorophenyl)-3-(2-oxo-2H-chromen-6-yl)urea]
hCA I
  Ki: > 100000 nM
hCA II
  Ki: > 100000 nM
hCA IX
  Ki: 41.5 nM
hCA XII
  Ki: 40.2 nM
HCT-116 cells
  inhibition at 10 µM: 10.9 ± 1.6%
  inhibition at 100 µM: 31.3 ± 4.6%
MCF-7 cells
  inhibition at 10 µM: 9.5 ± 4.2%
  inhibition at 100 µM: 13.5 ± 4.3%
other
  melting point: 249 to 250 °C

## Cc1cccc(Cl)c1NC(=O)Nc1ccc2oc(=O)ccc2c1 [Compound 5o, 1-(2-Chloro-6-methylphenyl)-3-(2-oxo-2H-chromen-6-yl)urea]
hCA I
  Ki: > 100000 nM
hCA II
  Ki: > 100000 nM
hCA IX
  Ki: 19.2 nM
hCA XII
  Ki: 13.8 nM
HCT-116 cells
  inhibition at 10 µM: 9.7 ± 4%
  inhibition at 100 µM: 78.6 ± 3.7%
MCF-7 cells
  inhibition at 10 µM: 30.3 ± 1.5%
  inhibition at 100 µM: 72.8 ± 5.5%

## Cc1cc(Cl)ccc1NC(=O)Nc1ccc2oc(=O)ccc2c1 [Compound 5n, 1-(4-Chloro-2-methylphenyl)-3-(2-oxo-2H-chromen-6-yl)urea]
hCA I
  Ki: > 100000 nM
hCA II
  Ki: > 100000 nM
hCA IX
  Ki: 28.4 nM
hCA XII
  Ki: 43.1 nM
HCT-116 cells
  inhibition at 10 µM: 4.9 ± 2.5%
  inhibition at 100 µM: 20.5 ± 3.5%
MCF-7 cells
  inhibition at 10 µM: 16.7 ± 4.9%
  inhibition at 100 µM: 19.9 ± 1.2%
